This is an account of results in patent publication US20170273922A1, “UREA AND BIS-UREA BASED COMPOUNDS AND ANALOGUES THEREOF USEFUL IN THE TREATMENT OF ANDROGEN RECEPTOR MEDIATED DISEASES OR DISORDERS” (THE ROYAL INSTITUTION FOR THE ADVACEMENT OF LEARNING/MCGILL …, priority 2014, published 2017).

Holding throughout (type): cell-based
The target of assay [1] is T1, T877A mutant of full-length AR (Homo sapiens, UniProt P10275, T878A).
T1 sequence (P10275 1-920 T878A): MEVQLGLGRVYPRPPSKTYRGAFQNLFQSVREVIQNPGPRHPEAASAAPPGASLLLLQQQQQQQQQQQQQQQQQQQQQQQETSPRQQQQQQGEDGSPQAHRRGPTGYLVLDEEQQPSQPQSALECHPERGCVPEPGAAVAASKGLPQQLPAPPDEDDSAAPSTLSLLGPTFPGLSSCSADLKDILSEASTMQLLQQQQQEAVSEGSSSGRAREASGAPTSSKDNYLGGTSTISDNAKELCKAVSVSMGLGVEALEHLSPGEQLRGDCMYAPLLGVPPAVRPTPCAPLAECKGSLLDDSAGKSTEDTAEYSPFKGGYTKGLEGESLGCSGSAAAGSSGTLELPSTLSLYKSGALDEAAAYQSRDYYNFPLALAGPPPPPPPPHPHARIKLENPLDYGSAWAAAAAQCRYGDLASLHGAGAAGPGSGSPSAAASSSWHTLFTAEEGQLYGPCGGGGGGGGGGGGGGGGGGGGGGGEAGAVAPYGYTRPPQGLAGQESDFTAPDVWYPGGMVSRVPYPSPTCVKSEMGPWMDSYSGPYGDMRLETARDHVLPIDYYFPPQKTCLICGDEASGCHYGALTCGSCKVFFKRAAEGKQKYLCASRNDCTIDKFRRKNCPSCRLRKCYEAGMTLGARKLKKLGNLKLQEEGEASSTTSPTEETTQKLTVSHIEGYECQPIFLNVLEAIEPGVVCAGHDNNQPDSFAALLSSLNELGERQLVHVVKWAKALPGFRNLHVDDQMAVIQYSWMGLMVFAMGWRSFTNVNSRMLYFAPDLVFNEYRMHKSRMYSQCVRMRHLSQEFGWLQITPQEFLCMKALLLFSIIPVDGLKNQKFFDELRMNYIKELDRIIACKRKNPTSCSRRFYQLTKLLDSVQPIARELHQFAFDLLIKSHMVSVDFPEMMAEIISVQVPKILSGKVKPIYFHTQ
As to the kind of experiment: AR T877A mutant PSA-luc reporter assay in PC3 cells. Conditions: 24 h; for inhibition of DHT-induced transactivation of T877A mutant AR (PSA-luc): 10 nM DHT; for agonism of AR T877A mutant (PSA-luc): absence of DHT. The source says: ENZ, enzalutamide; Bic, bicalutamide; OHF, hydroxyflutamide.
For orientation: Reporter assays use an easily measured gene product as a stand-in for the process of interest.

The subject of assay [2] is PSA expression in LNCaP cells. As to the kind of experiment: Western blot of PSA expression in LNCaP cells. The note with it: 24 h; for suppression of PSA expression in LNCaP cells (FIG. 19C): whole medium. The method, then: FIG. 11: A) Compounds 562 and 746 suppressed DHT-induced AR activation in LNCaP cells which endogenously express the T877A mutant; B) Western blot analysis indicated compound 746 at 2.5 μM suppressed DHT-induced expression of the PSA in LNCaP cells. […] ENZ, enzalutamide; BIC, bicalutamide; EPI, EPI-001.
Experiments were in duplicate and repeated three times. […] LNCaP cells in whole medium were exposed to DMSO vehicle control or compounds for 24 h.

Assay [3] addresses T2, IRF3DBD-AR(1-547) (Homo sapiens, UniProt P10275).
T2 construct: IRF3-AR(1-547) is the fusion of IRF3 DBD with the AR NTD (1-547); expressed in transfected cells
T2 sequence (P10275 1-547): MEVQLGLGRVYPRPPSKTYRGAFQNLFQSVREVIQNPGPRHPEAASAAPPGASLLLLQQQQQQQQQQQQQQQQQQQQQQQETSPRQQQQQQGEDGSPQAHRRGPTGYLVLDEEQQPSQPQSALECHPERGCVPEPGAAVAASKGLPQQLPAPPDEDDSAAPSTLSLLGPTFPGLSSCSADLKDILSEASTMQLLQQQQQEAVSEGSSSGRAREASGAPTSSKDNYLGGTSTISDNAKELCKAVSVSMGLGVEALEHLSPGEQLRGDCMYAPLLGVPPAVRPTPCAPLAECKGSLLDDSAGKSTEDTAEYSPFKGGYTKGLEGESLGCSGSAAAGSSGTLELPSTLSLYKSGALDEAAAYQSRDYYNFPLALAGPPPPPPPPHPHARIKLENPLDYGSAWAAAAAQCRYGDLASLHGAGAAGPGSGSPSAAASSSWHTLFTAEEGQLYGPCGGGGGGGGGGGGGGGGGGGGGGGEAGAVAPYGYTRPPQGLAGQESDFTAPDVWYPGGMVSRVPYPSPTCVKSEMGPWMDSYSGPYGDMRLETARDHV
As to the kind of experiment: IRF3DBD-AR(1-547) ISRE-luc reporter assay. The note with it: 24 h; for inhibition of IRF3DBD-AR(1-547)-mediated ISRE-luc activation: HEK293 cells; for inhibition of IRF3-AR(1-547)-dependent ISRE-luc reporter activity: PC3 cells.

The target of assay [4] is T3, Progesterone receptor (PR) (Homo sapiens, UniProt P06401).
T3 construct: expressed in transfected cells; host or cells: PC3
T3 sequence (P06401 1-933): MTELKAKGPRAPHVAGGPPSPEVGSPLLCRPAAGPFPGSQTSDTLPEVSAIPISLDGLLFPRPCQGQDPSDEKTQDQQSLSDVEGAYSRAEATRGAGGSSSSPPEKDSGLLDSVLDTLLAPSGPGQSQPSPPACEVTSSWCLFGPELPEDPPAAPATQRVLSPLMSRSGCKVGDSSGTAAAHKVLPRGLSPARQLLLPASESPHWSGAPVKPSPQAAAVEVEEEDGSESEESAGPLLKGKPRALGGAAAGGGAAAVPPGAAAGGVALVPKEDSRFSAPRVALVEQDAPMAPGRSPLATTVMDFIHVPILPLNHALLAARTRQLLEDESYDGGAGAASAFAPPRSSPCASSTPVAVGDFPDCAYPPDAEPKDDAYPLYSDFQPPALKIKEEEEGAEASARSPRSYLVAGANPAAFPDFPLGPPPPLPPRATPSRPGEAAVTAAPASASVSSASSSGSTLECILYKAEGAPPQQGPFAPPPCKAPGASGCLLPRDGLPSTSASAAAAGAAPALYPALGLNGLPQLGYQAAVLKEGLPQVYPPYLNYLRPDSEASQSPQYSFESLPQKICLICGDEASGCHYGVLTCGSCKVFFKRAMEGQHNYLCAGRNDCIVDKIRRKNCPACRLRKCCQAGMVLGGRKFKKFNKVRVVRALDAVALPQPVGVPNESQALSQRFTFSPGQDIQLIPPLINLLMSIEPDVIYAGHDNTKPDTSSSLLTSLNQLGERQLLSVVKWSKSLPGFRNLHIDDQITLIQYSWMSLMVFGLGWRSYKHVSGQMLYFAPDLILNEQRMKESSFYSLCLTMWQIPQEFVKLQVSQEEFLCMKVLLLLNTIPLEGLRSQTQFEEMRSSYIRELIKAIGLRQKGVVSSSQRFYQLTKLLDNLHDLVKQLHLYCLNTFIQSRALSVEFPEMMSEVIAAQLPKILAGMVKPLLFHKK
As to the kind of experiment: PR MMTV-luc reporter assay in PC3 cells. Details: interference with transcriptional activity of PR: dose or concentration left out as unconfirmed. The note with it: for effect on PR transcriptional activation (MMTV-luc): 10 nM R5020, PC3 cells, 24 h.

Structures are written as SMILES. “Also recorded” adds a separate entry of the source.

`N#Cc1ccc(NC(=O)Nc2cccc(C(F)(F)F)c2)cc1C(F)(F)F` [Compound 467]: in assay [1], the “inhibition of DHT-induced transactivation of T877A mutant AR (PSA-luc)” value (from here on “inhibition … (PSA-luc)”) is “dose-dependently suppressed; also recorded: dose-dependently inhibit” and the “agonism of AR T877A mutant (PSA-luc)” value was “non-agonist”. Besides, the “suppression of PSA expression in LNCaP cells (FIG. 19C)” value in assay [2] is on record as “dose-dependently suppressed”. In addition, the “inhibition of IRF3DBD-AR(1-547)-mediated ISRE-luc activation” value in assay [3] is listed as “suppressed”.
Take `N#Cc1ccc(NC(=O)Nc2cccc(C(F)(F)F)c2)cc1Cl` [Compound 492]: in assay [1], the “inhibition … (PSA-luc)” value is on record as “dose-dependently suppressed; also recorded: dose-dependently inhibit” and the “agonism of AR T877A mutant (PSA-luc)” value was “non-agonist”.
With `O=C(N/C=C/c1cccc(C(F)(F)F)c1)Nc1ccncn1` [Compound 562], the “inhibition … (PSA-luc)” value in assay [1] is reported as “inhibit”. For the same compound, in assay [2] (10 nM DHT), the “suppression of PSA expression in LNCaP cells (FIG. 11B)” value is on record as “suppressed”. Besides, in assay [3], the “inhibition of IRF3DBD-AR(1-547)-mediated ISRE-luc activation” value was “targeting the AR-NTD; also recorded: target the AR-NTD” and the “inhibition of IRF3-AR(1-547)-dependent ISRE-luc reporter activity” value is on record as “potently inhibit”. Moreover, in assay [4], the “interference with transcriptional activity of PR” value (“interference” for short) is recorded as “do not interfere” and the “effect on PR transcriptional activation (MMTV-luc)” value (“effect” for short) is given as “do not interfere; also recorded: selective towards the AR”.
In the case of `O=C(Nc1cccc(C(F)(F)F)c1)Nc1ccc([N+](=O)[O-])c(C(F)(F)F)c1` [Compound 442], in assay [1], the “inhibition … (PSA-luc)” value is on record as “dose-dependently suppressed; also recorded: dose-dependently inhibit” and the “agonism of AR T877A mutant (PSA-luc)” value is on record as “non-agonist”. Further, in assay [2], the “suppression of PSA expression in LNCaP cells (FIG. 19C)” value is “dose-dependently suppressed”. Also, the “inhibition of IRF3DBD-AR(1-547)-mediated ISRE-luc activation” value in assay [3] was “suppressed”.
For `O=C(Nc1ccc(Br)nc1)Nc1cc(C(F)(F)F)cc(C(F)(F)F)c1` [Compound 566], the “inhibition of IRF3DBD-AR(1-547)-mediated ISRE-luc activation” value in assay [3] was “targeting the AR-NTD; also recorded: target the AR-NTD”. Further, in assay [4], the “interference” value was “do not interfere” and the “effect” value is reported as “do not interfere”.
Turning to `O=C(Nc1cccc(C(F)(F)F)c1)Nc1ccc(NC(=O)c2ccccc2F)c(C(F)(F)F)c1` [Compound 746], in assay [1], the “inhibition … (PSA-luc)” value was “inhibit”. Moreover, the “suppression of PSA expression in LNCaP cells (FIG. 11B)” value in assay [2] (10 nM DHT) is “suppressed”. Besides, the “suppression of DHT-induced expression of the PSA in LNCaP cells” value in assay [2] (2.5 μM, 10 nM DHT) was “suppressed”. In assay [3], the “inhibition of IRF3DBD-AR(1-547)-mediated ISRE-luc activation” value is “targeting the AR-NTD; also recorded: target the AR-NTD” and the “inhibition of IRF3-AR(1-547)-dependent ISRE-luc reporter activity” value is recorded as “potently inhibit”. Also, in assay [4], the “interference” value is given as “do not interfere” and the “effect” value is on record as “do not interfere; also recorded: selective towards the AR”.
